Results taken from patent publication US20120270237A9, “METHODS FOR THE IDENTIFICATION OF KINASE INTERACTING MOLECULES AND FOR THE PURIFICATION OF KINASE PROTEINS” (Cellzone AG, priority 2009, published 2012).

Tests used:
Test in all cases: Kinobeads competition binding, HL60 cell lysate
Parameters in all cases: endogenous in cells
Details in all cases: 10 μM free compound
JNK1 = JNK1 (Homo sapiens, UniProt P45983)
Experimental: (§1) To one aliquot of cell lysate 10 μM of the free compound (FIG. 3, CZC31326) was added and allowed to bind to proteins in the lysate. Then the affinity matrix with the immobilized compound (Example 1) was added to capture proteins that were not interacting with the previously added free compound. Beads were separated from the lysate and bead bound proteins were eluted in SDS sample buffer and subsequently separated by SDS-Polyacrylamide gel electrophoresis (FIG. 4). Suitable gel bands were cut out and subjected to in-gel proteolytic digestion with trypsin. The second lysate aliquot was processed identically, however no free compound was added (DMSO solvent control). Peptides originating from samples 1 and 2 were labeled with iTRAQ reagents (iTRAQ 114 and iTRAQ 117) and the combined samples were analyzed with a nano-flow liquid chromatography system coupled online to a tandem mass spectrometer (LC-MS/MS) experiment followed by iTRAQ reporter ion quantification in the MS/MS spectra (Ross et al., 2004. Mol. Cell. Proteomics 3(12):1154-1169). Further experimental protocols can be found in WO2006/134056 and a previous publication (Bantscheff et al., 2007. Nature Biotechnology 25, 1035-1044). Sepharose-beads with the immobilized compound (100 μl beads per pull-down experiment) were equilibrated in lysis buffer and incubated with a cell lysate sample containing 50 mg of protein on an end-over-end shaker (Roto Shake Genie, Scientific Industries Inc.) for 2 hours at 4° C. Beads were collected, transferred to Mobicol-columns (MoBiTech 10055) and washed with 10 ml lysis buffer containing 0.4% NP40 detergent, followed by 5 ml lysis buffer containing 0.2% detergent. To elute bound proteins, 60 μl 2×SDS sample buffer was added to the column. The column was incubated for 30 minutes at 50° C. and the eluate was transferred to a siliconized microfuge tube by centrifugation. Proteins were then alkylated with 108 mM iodoacetamid. Proteins were then separated by SDS-Polyacrylamide electrophoresis (SDS-PAGE). The peptide extracts of samples treated with 10 μM of free compound (CZC31326) and the solvent control (0.5% DMSO) were treated with different variants of the isobaric tagging reagent (iTRAQ Reagents Multiplex Kit, part number 4352135, Applied Biosystems, Foster City, Calif., USA). The iTRAQ reagents are a set of multiplexed, amine-specific, stable isotope reagents that can label peptides on amino groups in up to four different biological samples enabling simultaneous identification and quantitation of peptides. The iTRAQ reagents were used according to instructions provided by the manufacturer. The samples were resuspended in 10 μl 50 mM TEAB solution, pH 8.5 and 10 μl ethanol were added. The iTRAQ reagent was dissolved in 120 μl ethanol and 10 μl of reagent solution were added to the sample. The labeling reaction was performed at room temperature for one hour on a horizontal shaker and stopped by adding 5 μl of 100 mM TEAB and 100 mM glycine in water. The two labeled sampled were then combined, dried in a vacuum centrifuge and resuspended in 10 μl of 0.1% formic acid in water. Relative protein quantitation was performed using peak areas of iTRAQ reporter ion signals essentially as described in an earlier publication (Bantscheff et al., 2007. Nature Biotechnology 25, 1035-1044).

GCK = target: T1, GCK (Homo sapiens, UniProt Q12851)
T1 sequence (Q12851 1-820): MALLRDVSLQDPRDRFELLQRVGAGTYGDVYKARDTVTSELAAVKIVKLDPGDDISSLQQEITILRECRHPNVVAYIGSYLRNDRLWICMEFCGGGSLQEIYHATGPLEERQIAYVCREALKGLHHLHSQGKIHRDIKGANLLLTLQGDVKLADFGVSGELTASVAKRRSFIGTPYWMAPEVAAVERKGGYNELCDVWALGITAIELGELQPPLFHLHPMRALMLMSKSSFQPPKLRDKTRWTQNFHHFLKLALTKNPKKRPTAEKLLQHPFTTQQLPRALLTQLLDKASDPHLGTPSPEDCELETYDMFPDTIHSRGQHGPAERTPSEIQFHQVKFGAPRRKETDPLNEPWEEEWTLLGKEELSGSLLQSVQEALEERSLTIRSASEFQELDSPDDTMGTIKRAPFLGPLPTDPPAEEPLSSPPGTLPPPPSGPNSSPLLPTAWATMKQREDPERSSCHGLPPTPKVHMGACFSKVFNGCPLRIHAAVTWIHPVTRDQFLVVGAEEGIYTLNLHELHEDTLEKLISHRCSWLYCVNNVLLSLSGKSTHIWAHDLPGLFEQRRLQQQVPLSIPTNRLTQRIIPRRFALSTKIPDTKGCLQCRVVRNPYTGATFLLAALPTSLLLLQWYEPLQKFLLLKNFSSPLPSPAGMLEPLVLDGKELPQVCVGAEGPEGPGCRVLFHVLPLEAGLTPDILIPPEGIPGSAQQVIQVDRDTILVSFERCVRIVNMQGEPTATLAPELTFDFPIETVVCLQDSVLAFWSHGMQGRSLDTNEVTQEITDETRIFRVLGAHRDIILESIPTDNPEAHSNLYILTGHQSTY
Experimental: as §1

MAP3K4 = MAP3K4 (Homo sapiens, UniProt Q9Y6R4)
Experimental: as §1

STK33 = STK33 (Homo sapiens, UniProt Q9BYT3)
Experimental: as §1

CDK9 = CDK9 (Homo sapiens, UniProt P50750)
Experimental: as §1

NEK3 = target: T2, NEK3 (Homo sapiens, UniProt P51956)
T2 sequence (P51956 1-506): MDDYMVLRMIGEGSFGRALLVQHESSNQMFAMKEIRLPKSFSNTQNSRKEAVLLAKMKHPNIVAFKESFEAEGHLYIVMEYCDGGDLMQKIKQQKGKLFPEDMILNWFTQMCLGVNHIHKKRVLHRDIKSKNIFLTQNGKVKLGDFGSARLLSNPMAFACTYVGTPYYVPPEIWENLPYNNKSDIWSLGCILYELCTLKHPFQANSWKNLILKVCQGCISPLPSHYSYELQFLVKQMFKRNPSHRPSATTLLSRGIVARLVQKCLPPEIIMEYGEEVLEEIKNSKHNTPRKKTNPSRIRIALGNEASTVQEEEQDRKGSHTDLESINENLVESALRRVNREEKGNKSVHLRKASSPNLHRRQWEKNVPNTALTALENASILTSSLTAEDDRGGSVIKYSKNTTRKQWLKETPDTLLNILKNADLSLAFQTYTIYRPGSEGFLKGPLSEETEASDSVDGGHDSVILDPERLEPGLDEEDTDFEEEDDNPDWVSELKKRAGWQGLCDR
Experimental: as §1

Chain of CDK9 (P50750 whole entry): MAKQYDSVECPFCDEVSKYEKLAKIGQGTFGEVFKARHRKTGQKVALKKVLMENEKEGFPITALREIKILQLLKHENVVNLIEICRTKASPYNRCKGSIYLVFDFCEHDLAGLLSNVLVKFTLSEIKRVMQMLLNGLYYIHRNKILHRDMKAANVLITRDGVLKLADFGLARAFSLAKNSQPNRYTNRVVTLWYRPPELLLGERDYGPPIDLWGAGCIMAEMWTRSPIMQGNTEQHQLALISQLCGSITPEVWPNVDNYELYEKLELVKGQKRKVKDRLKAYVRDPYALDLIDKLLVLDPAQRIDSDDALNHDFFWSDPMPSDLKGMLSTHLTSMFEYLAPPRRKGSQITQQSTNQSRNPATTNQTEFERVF
Chain of JNK1 (P45983 whole entry): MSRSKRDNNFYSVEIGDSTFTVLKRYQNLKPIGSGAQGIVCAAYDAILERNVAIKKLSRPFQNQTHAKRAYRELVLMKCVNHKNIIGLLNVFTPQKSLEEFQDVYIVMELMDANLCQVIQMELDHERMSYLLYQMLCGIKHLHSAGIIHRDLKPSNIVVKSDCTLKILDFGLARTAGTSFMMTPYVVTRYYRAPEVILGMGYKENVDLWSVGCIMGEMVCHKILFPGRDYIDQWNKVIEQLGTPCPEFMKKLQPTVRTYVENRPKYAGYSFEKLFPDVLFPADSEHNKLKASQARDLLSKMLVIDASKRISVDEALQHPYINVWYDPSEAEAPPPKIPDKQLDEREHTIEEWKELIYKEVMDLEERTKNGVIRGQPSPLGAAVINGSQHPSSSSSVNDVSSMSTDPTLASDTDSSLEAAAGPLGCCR
Chain of MAP3K4 (Q9Y6R4 whole entry): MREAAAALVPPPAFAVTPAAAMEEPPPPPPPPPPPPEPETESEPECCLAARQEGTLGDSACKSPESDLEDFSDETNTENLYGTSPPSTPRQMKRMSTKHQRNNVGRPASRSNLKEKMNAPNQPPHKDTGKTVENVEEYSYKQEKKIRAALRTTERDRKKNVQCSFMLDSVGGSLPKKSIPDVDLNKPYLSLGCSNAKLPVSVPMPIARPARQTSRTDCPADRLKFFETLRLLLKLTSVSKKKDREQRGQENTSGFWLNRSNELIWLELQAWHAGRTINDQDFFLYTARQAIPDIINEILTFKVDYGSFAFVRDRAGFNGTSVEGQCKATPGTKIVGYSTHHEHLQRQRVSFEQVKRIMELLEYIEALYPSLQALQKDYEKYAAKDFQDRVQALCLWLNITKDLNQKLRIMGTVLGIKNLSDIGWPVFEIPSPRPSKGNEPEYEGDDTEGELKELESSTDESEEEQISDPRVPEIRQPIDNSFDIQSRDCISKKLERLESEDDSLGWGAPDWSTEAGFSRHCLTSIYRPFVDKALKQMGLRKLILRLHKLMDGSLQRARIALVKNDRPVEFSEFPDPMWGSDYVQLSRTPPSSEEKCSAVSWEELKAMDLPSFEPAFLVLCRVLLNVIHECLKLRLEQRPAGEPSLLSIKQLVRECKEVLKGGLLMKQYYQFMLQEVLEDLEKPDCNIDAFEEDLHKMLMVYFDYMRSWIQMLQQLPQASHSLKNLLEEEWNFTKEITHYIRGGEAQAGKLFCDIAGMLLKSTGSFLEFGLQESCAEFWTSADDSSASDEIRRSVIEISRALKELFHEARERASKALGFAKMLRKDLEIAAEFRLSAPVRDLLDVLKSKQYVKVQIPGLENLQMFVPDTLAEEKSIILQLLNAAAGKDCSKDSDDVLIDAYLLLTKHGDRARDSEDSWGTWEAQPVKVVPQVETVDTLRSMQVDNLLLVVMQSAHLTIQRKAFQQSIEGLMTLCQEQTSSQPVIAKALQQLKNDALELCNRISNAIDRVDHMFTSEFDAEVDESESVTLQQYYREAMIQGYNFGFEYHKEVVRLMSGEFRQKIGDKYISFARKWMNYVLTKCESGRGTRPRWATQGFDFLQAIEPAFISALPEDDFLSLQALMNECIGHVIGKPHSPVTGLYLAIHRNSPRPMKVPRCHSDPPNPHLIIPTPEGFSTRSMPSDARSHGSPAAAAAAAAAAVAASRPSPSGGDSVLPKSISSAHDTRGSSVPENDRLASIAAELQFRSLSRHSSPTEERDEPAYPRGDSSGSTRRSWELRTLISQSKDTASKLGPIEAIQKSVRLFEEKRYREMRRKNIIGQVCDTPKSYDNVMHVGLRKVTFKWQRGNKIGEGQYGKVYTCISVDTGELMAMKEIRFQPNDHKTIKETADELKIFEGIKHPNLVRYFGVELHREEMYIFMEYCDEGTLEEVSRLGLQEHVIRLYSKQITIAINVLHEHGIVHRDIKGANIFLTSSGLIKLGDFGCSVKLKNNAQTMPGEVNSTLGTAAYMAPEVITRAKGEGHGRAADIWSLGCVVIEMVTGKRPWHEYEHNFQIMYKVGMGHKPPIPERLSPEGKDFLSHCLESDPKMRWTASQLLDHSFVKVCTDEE
Chain of STK33 (Q9BYT3 whole entry): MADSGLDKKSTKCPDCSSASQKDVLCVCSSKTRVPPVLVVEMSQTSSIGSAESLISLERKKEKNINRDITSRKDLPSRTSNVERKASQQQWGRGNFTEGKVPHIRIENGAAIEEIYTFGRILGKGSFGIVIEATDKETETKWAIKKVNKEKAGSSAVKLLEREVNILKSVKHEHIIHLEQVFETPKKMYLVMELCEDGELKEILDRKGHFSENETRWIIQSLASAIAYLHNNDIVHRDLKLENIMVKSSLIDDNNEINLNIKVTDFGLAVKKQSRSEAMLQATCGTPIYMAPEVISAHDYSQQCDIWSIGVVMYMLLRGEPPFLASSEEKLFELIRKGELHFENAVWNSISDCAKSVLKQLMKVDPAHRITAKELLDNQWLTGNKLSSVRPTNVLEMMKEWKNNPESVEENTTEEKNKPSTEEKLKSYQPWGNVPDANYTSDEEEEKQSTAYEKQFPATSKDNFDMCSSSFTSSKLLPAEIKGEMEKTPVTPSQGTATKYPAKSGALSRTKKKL

In the case of `CS(=O)(=O)Nc1ccccc1Nc1nc(Nc2cccc(OCCN)c2)ncc1Cl` [CZC31326, N-(2-(2-(3-(2-aminoethoxy)phenylamino)-5-chloropyrimidin-4-ylamino)phenyl)methanesulfonamide], the Competition % (JNK1) was 88.8%, the inhibition at 10 µM (GCK) was 96.5% and the inhibition at 10 µM (MAP3K4) was 97.2%. The inhibition at 10 µM (STK33) was 96.9%, the inhibition at 10 µM (CDK9) was 98.2% and the inhibition at 10 µM (NEK3) was 97%.
